Experiments:
TLR8 = target: T1, TLR8 (Homo sapiens, UniProt Q9NR97); assay: Inhibition of R848-induced signaling in HEK-Blue hTLR8 cell line (Quanti-Blue); assay type: cell-based; settings: HEK-Blue hTLR8 cell line; normalized, ligand+DMSO = 100% activity, untreated = 0%
T1 construct: host or cells: HEK-Blue hTLR8 (HEK293-derived SEAP reporter cells)
T1 sequence (Q9NR97 27-1041): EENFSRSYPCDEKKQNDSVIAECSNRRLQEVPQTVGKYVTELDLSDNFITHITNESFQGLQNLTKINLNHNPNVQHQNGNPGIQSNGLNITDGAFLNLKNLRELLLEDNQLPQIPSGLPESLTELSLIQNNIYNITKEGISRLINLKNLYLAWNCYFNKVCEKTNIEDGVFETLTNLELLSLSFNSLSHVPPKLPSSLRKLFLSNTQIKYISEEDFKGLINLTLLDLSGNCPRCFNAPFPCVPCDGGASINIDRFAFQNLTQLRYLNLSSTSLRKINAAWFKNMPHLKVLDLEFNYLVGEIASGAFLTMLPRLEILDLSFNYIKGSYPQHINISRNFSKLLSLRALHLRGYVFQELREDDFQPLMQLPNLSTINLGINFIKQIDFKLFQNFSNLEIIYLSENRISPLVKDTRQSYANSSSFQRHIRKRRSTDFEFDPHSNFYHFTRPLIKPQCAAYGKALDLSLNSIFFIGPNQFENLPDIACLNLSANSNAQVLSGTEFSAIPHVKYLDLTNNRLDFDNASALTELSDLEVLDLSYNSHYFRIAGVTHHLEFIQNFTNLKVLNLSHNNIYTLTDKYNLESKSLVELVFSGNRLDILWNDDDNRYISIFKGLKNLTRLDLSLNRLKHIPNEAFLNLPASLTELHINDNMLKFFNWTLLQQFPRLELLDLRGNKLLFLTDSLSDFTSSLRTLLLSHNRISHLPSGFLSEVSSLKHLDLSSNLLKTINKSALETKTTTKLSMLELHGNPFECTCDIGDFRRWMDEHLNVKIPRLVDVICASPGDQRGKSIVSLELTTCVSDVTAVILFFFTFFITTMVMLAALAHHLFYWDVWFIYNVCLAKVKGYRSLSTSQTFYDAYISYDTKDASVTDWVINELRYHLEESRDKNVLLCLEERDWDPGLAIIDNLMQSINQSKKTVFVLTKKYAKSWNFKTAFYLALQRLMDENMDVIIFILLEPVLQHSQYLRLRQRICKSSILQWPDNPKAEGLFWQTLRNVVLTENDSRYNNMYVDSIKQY
Experimental: (§1) HEK Blue hTLR8 cells or HEK Blue hTLR7 cells were cultured in DMEM medium supplemented with 10% fetal bovine serum, penicillin (100 U/mL) and streptomycin ([…]). Thereafter, cells were seeded in 96-well plate (45,000 cells per well), and were cultured for 24 hours in a humidified incubator (37° C., 5% CO2).
After 24 hours, the supernatant and suspending cells were aspirated and replaced with fresh serum-free DMEM.
(§2) After 24 hours, 50 μL of the medium was aspirated from each well and then added to a new 96-well plate, followed by the addition of 50 μL of Quanti-Blue in each well and the incubation at 37° C. in darkness. Changes in color would occur in the […] within 60 minutes, and the absorbance was measured at 620 nm by using the multi-mode plate reader Vrioskan Flash. Inhibition rate (%)=[R848 (OD620)−Compound (OD620)]/[R848 (OD620)−Control (OD620)]×100%. Among these, the control group was only added with the same amount of cells. Finally, the software Prism 6.0 was utilized to plot a graph and calculate IC50 values. Or, the activity of the cells treated with ligand and DMSO was defined as 100% activity, and the activity of the untreated cells was defined as 0% activity.

TLR7 = target: T2, TLR7 (Homo sapiens, UniProt Q9NYK1); assay: Inhibition of R848-induced signaling in HEK-Blue hTLR7 cell line (Quanti-Blue); assay type: cell-based
T2 construct: host or cells: HEK-Blue hTLR7 (HEK293-derived SEAP reporter cells)
T2 sequence (Q9NYK1 27-1049): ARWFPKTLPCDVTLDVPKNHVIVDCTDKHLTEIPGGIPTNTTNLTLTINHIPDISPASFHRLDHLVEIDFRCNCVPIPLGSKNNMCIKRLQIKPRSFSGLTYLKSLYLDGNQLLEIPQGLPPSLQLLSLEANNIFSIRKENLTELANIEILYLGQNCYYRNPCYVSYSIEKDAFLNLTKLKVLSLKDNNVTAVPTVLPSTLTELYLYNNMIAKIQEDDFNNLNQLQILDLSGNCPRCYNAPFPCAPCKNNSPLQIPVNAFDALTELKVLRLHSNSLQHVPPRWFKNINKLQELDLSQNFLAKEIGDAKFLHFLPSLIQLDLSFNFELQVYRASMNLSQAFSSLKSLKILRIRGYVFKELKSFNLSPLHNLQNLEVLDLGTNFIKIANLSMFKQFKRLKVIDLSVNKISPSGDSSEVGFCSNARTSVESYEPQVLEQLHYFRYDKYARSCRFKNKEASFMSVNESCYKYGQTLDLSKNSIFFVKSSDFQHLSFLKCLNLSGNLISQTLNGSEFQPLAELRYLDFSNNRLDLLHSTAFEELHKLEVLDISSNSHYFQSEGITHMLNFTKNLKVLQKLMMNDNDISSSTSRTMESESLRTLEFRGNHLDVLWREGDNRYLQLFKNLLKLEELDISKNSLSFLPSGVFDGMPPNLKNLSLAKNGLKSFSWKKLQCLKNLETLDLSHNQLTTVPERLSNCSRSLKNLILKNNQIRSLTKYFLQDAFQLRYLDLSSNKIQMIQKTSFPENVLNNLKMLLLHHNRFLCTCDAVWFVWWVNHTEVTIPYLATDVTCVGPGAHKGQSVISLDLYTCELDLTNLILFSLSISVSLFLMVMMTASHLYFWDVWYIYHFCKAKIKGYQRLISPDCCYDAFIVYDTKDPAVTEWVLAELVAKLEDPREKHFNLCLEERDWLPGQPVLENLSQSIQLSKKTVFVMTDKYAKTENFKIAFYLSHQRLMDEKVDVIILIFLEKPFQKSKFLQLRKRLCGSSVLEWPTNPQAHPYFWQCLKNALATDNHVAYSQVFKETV
Experimental: as §1
After 24 hours, the supernatant and suspending cells were aspirated and replaced with fresh serum-free DMEM. Cells were treated with 1 μg/mL of R848 (agonist of TLR7/8) or 5 μg/mL of ssRNA40/LyoVec or 5 μg/mL of ORN06/LyoVec (InvivoGen) and compounds with specified concentrations, and were placed in a humidified incubator (37° C., 5% CO2) for co-culture.
as §2

HEK-Blue hTLR8 cell line = assay: Toxicity test of compounds (CCK-8 cell viability); assay type: cell-based, human; design: key to WST1 (normalized toxicity effect): viability relative to control well (background-subtracted OD), 1 = control; settings: normalized cell viability, HEK-Blue cell lines
Experimental: In the 96-well plate used for the above-mentioned activity test of compounds (remaining 50 μL of culture medium containing cells), 5 μL of CellCountingKit-8 (CCK-8) Supermix was added to each well. Note that the introduction of air bubbles into the wells should be avoided since the air bubbles would interfere with the detection of OD value.
The culture plate was incubated in an incubator for 1 to 4 hours,
The edge of the 96-well plate could be tapped gently before reading the plate, and then the absorbance at 450 nm was measured by using the multi-mode plate reader.
Cell viability (%) was determined using the following formula: cell viability (%)=([Compound well ([…])−Background well (OD450)]/[Control well ([…])−Background well (OD450)])×100%. Among these, the background well was only added with the medium and CCK-8 reagent, the control well was only added with the medium, cells, R848 and CCK-8, and the compound wells were added with the medium, cells, R848, compounds in different concentrations, and CCK-8.

SMILES | Remaining R848-induced TLR8 signaling (normalized activity; ligand+DMSO = 1, untreated = 0) (TLR8) | TLR7 (normalized inhibitory effect on R848-induced signaling) (TLR7) | WST1 (normalized toxicity effect) (HEK-Blue hTLR8 cell line)
CCOCc1nc(C(=O)O)c(-c2ccccc2)n1CC(C)(C)O [Compound 54, 2-(ethoxymethyl)-1-(2-hydroxy-2-methylpropyl)-5-phenyl-1H-imidazole-4-carboxylic acid] | 0.9 ± 0.2 | 0.9 ± 0.2 | 1.1 ± 0.3
CCOCc1ncc(-c2ccccc2)n1CC(C)C [Compound 55, 2-(ethoxymethyl)-1-(2-methylpropyl)-5-phenyl-1H-imidazole] | 0.8 ± 0.1 | 0.6 ± 0.2 | 0.9 ± 0.3
CCOCc1nc(Cl)c(-c2ccccc2)n1CC(C)C [Compound 56, 4-chloro-2-(ethoxymethyl)-1-(2-methylpropyl)-5-phenyl-1H-imidazole] | 0.5 ± 0.2 | 0.6 ± 0.2 | 0.7 ± 0.2
CCOCc1nc(Br)c(-c2ccccc2)n1CC(C)C [Compound 57, 4-bromo-2-(ethoxymethyl)-1-(2-methylpropyl)-5-phenyl-1H-imidazole] | 0.01 ± 0.01 | 0.1 ± 0.1 | 0.7 ± 0.1
CCOCc1nc(I)c(-c2ccccc2)n1CC(C)C [Compound 58, 2-(ethoxymethyl)-4-iodo-1-(2-methylpropyl)-5-phenyl-1H-imidazole] | 0.01 ± 0.01 | 0.1 ± 0.2 | 0.3 ± 0.2
CCOCc1nc(I)c(-c2ccc(-c3ccccc3)cc2)n1CC(C)(C)O [Compound 60, 1-(5-([1,1′-biphenyl]-4-yl)-2-(ethoxymethyl)-4-iodo-1H-imidazole-1-yl)-2-methylpropan-2-ol] | 0.3 ± 0.1 | 1.0 ± 0.1 | 0.6 ± 0.1
CCOCc1nc(I)c(-c2cccc(-c3ccccc3)c2)n1CC(C)(C)O [Compound 61, 1-(5-([1,1′-biphenyl]-3-yl)-2-(ethoxymethyl)-4-iodo-1H-imidazole-1-yl)-2-methylpropan-2-ol] | 0.01 ± 0.01 | 0.9 ± 0.1 | 0.9 ± 0.2
CCOCc1nc(I)c(-c2cccc3ccccc23)n1CC(C)(C)O [Compound 62, 1-(2-(ethoxymethyl)-4-iodo-5-(naphthalen-1-yl)-1H-imidazole-1-yl)-2-methylpropan-2-ol] | 0.06 ± 0.1 | 0.9 ± 0.1 | 0.8 ± 0.1
CCOCc1nc(I)c(-c2ccc3ccccc3c2)n1CC(C)(C)O [Compound 63, 1-(2-(ethoxymethyl)-4-iodo-5-(naphthalen-2-yl)-1H-imidazole-1-yl)-2-methylpropan-2-ol] | 0.9 ± 0.1 | 0.9 ± 0.2 | 1.0 ± 0.1
CCOCc1nc(I)c(-c2ccc(C)cc2)n1CC(C)(C)O [Compound 64, 1-(2-(ethoxymethyl)-4-iodo-5-(p-tolyl)-1H-imidazole-1-yl)-2-methylpropan-2-ol] | 0.9 ± 0.1 | 0.9 ± 0.2 | 1.1 ± 0.1

Reference: US20230002327A1, “SMALL-MOLECULE REGULATOR OF TLR8” (TSINGHUA UNIVERSITY, priority 2019, published 2023)
